Data: PMC4260654 (Cell host & microbe, 2014)

What was measured:
[1] = molecular target: T1, CLOSPO_02083 (Clostridium sporogenes, UniProt J7SZ64); test: progress curves of tryptamine production by HPLC, kobs vs [I]; assay type: biochemical; conditions: read-out: Ki
T1 sequence (J7SZ64 1-417): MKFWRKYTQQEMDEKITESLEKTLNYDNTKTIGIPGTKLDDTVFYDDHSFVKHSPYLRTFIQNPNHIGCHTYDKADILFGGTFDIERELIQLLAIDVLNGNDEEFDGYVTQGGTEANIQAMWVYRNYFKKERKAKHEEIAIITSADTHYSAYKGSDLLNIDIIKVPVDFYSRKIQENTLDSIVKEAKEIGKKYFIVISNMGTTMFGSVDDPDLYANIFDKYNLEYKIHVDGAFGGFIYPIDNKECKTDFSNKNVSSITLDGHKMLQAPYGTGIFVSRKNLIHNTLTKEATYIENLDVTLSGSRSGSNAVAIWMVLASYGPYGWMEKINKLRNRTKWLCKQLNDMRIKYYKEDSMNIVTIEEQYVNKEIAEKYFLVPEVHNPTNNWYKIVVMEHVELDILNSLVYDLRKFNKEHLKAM

[2] = molecular target: RUMGNA_01526 (Mediterraneibacter gnavus, UniProt A7B1V0); test: X-ray crystal structure at […] Å; assay type: biochemical; conditions: read-out: Ki

NC(CF)(Cc1c[nH]c2ccccc12)C(=O)O (stereo in doubt) [I, (S)-α-FMT]
KI (inactivation) [1]: 200 nM
KI (inactivation) [2]: 178 µM
